Measured values: patent publication US20020061569A1, “Identification of essential genes in prokaryotes” (priority 2000, published 2002)

What was measured:
[1] = test system: E. coli transformed with IPTG-inducible antisense clones; test: Cell-based assay using antisense to genes encoding ribosomal proteins (Example 9)
Text: First, pLex5BA (Krause et al., J. Mol. Biol. 274: 365 (1997), the disclosure of which is incorporated herein by reference in its entirety) vectors containing antisense constructs to either rplW or to elaD were introduced into separate E. coli cell populations. Vector introduction is a technique well known to those of ordinary skill in the art. The vectors of this example contain IPTG inducible promoters that drive the transcription of the antisense RNA in the presence of the inducer. However, those skilled in the art will appreciate that other inducible promoters may also be used. Suitable vectors are also well known in the art. Antisense clones to genes encoding different ribosomal proteins or to genes encoding proteins that are not involved in protein synthesis were utilized to test the effect of antisense transcription on cell sensitivity to the antibiotics known to bind to ribosomal proteins and inhibit protein synthesis. Antisense nucleic acids comprising a nucleotide sequence complementarty to the elaD, atpB&atpE, visC and yohH genes are referred to as AS-elaD, AS-atpB/E, AS-visC, AS-yohH respectively. These genes are not known to be involved in protein synthesis. […]
The cell populations containing vectors producing AS-elaD or AS-rplW were exposed to a range of IPTG concentrations in liquid medium to obtain the growth inhibitory dose curve for each clone (FIG. 1). First, seed cultures were grown to a particular turbidity measured by the optical density (OD) of the growth solution. […] The cells were grown for up to 15 hours and the extent of growth was determined by measuring the optical density of the cultures at 600 nm. […]
An example of a tetracycline dose response curve is shown in FIGS. 2A and 2B for the rplW and elaD genes, respectively. Cells were grown to log phase and then diluted into medium alone or medium containing IPTG at concentrations which give 20% and 50% growth inhibition as determined by IPTG dose response curves. […] The 96 well plates were incubated at 37° C. and the OD600 was read by a plate reader every 5 minutes for up to 15 hours. […]

[2] = test system: Staphylococcus aureus RN4220; test: Inhibition of proliferation after xylose induction of antisense expression (Example 1); assay type: cell-based; conditions: 2% xylose
Text: In the case of Staphylococcus aureus, a novel inducible promoter system, XylT5, comprising a modified T5 promoter fused to the xylO operater from the xyla promoter of Staphylococcus aureus was used. The promoter is described in U.S. Provisional Patent Application Ser. No. 60/259,434, the disclosure of which is incorporated herein by reference in its entirety. Transcription from this hybrid promoter is inducible by xylose.
In the case of Staphylococcus aureus, a shotgun library of Staphylococcus aureus genomic fragments was cloned into the vector pXyIT5-P15a, which harbors the Xy1T5 inducible promoter. […]
The purified library was then transformed into electrocompetent Staphylococcus aureus RN4220. […] Gridded plates were incubated 16 hours at 37° C., and then manually scored for arrayed colonies that were growth-compromised in the presence of xylose.
Arrayed colonies that were growth-sensitive on medium containing 2% xylose, yet were able to grow on similar medium lacking xylose, were subjected to further growth sensitivity analysis as follows: Colonies from the plate lacking xylose were manually picked and inoculated into individual wells of a 96 well culture dish containing LBG+CM15, and were incubated for 16 hours at 37° C. […] Clones that grew similarly at all dilutions on both media were scored as a negative and were no longer considered.

CCn1cc(C(=O)O)c(=O)c2ccc(C)nc21 [Nalidixic acid]
sensitivity of the clone transcribing antisense to rplL and rplJ (AS-rplL/J) ([1]; antibiotics which do not inhibit protein synthesis): does not show increased sensitivity

CC[C@H]1OC(=O)[C@H](C)[C@@H](O[C@H]2C[C@@](C)(OC)[C@@H](O)[C@H](C)O2)[C@H](C)[C@@H](O[C@@H]2O[C@H](C)C[C@H](N(C)C)[C@H]2O)[C@](C)(O)C[C@@H](C)C(=O)[C@H](C)[C@@H](O)[C@]1(C)O [Erythromycin]
sensitivity of cells transcribing antisense to genes not involved in protein synthesis ([1]; AS-atpB/E, AS-visC, AS-elaD, AS-yohH): do not
sensitivity of cells transcribing antisense to protein synthesis genes ([1]; AS-rplL, AS-rplW, clones to L7/L12, L10, L22, L18, rRNA, Elongation Factor G, with vs without IPTG): increased sensitivity

B1: S1M10000001A05: clone containing the nucleic acid which inhibits Staphylococcus aureus proliferation (nucleic acid, listed as Staphylococcus aureus)
DNA: GATCATATAGAATGACATCCGCTTCACGTATTAAACGCTCAGCCTTTTTCGTCAAATAATTCGGATTACCTGGACCCGCACCTATCAAGTAAACCTTGCCATATTCCTCTACAGACATATATATACGTTCCCGTCTGTAACTTCTACCTCATAAACATCTACACAACCTTCATCAGGTTCTTGAACAATACCTGTATTTAAATCAATTTTTT
growth sensitivity upon induction of antisense transcription [2]: inhibits Staphylococcus aureus proliferation
